Measured values reported in patent publication US7557085B2, “Metabolic-based methods for modulating gene expression” (Wisconsin Alumni Research Foundation, priority 2005, dated 2009).

Assays:
[1] = tested on: actin (not an NRSF target); assay: QRT-PCR of actin in JTC-19 cells; assay type: cell-based, rat; conditions: 1 mM 2-DG for 24 hrs
From the text: (§1) FIG. 5 are graphs showing the results of quantitative reverse-transcriptase-PCR experiments, wherein NaV1.2 is sodium type II (NaV1.2); BDNF is Brain Derived Neurotrophic Factor (BDNF) and CHRM4 is muscarinic acetylcholine receptor type 4 (CHRM4), all genes repressed by NRSE/NRSF, and actin (not an NRSF target).
(§2) Firefly luciferase measurements were normalized to co-transfected pRL-TK and expressed as fold repression (gal4 DBD/gal4-NRSF). Values are the average of at least three experiments performed in triplicate. Error bars indicate standard errors. […] In these experiments, cells were grown in the presence or absence of 1 mM 2-DG for 24 hrs, harvested and RNA subjected to QRT-PCR with primers to the NRSF target genes Sodium Type II (NaV1.2), Brain Derived Neurotrophic Factor (BDNF) and Muscarinic Acetylcholine Receptor Type 4 (CHRM4) or actin (not an NRSF target). Rat hippocampal cDNA was used to generate a standard curve and values plotted are microliter equivalents of hippocampal cDNA.

[2] = tested on: NRSF mediated repression; assay: gal4-NRSF luciferase reporter (G5-TATA-Luc) in JTC-19 cells; assay type: cell-based, rat; conditions: JTC-19 cells
[3] = tested on: BDNF NRSE; assay: ChIP on hippocampi of rats administered 2-DG or saline, BDNF NRSE; assay type: in vivo, rat
From the text: FIG. 10D is a graph showing the results of CHiP assays of ˜20 kB surrounding the NRSE element in the BDNF gene. The data is plotted as the quantity of DNA specifically precipitated (pg).
FIG. 10E is a graph showing the results of CHiP assays wherein chromatin precipitated with anti-H3K9-dimethyl or sham antibody and primers flanking the BDNF NRSE. The data is plotted as the quantity of DNA specifically precipitated (pg).
FIG. 10F is a graph showing the results of CHiP assays wherein chromatin was precipitated with anti-NRSF or sham antibody and primers flanking the BDNF or actin promoter. The data is plotted as the quantity of DNA specifically precipitated (pg).
FIG. 10I is a graph of CHIP assays performed on hippocampi from rats administered 2-DG or saline for 2 weeks and using a cocktail of anti-CtBP1 and anti-CtBP2 antibody or sham antibody and primers flanking the BDNF NRSE or actin promoter. Data is plotted as quantity of DNA specifically precipitated in picograms.
(§3) To determine whether 2-DG mediated suppression of BDNF levels was associated with a decreased level of histone H3 Lysine^9 acetylation, hippocampii from 2-DG treated or control rats were crosslinked with 1% formaldehyde and subjected to chromatin immunoprecipitation assays (ChIPs), performed as in Roopra et al.(2004, Mol Cell 14: 727-38) with an antibody specific to acetylated H3-K9. The graphs shown in FIGS. 10A through 10C show the results of experiments in which the amount (in ng) of DNA associated with nucleosomes comprising modified or unmodified H3 histone proteins was detected for an endogenous, NRSE/NRSF-regulated gene (CHRM4) in JTC-19 cells grown in the presence of 2-DG or glucose. […] However, the amount of CtBP recruited to CHRM4, the NRSF target gene, increased 5-fold in the presence of 2-DG.
ChIP assays also were performed over 20 Kb spanning the BDNF NRSE to detect deacetylated histone H3K9. In these experiments, hippocampi from rats administered 2-DG or saline for 2 weeks were subjected to CHIP with anti-H3K9-acetyl (obtained from BD-Pharmigen) or sham antibody and primers flanking BDNF NRSE or sequence 2, 5 or 10 Kb up- or downstream from the BDNF NRSE element.
Alternatively, when chromatin from the above experiments was precipitated with anti-NRSF or sham antibody and primers flanking the BDNF NRSE or actin promoter, specific binding was found at the NSRE element and not associated with the actin promoter.
The above results predicted that CtBP would be present at the BDNF NRSF binding site in rat hippocampi and that occupancy at this site should be augmented in the presence of 2-DG. To test this prediction, ChIP assays were performed using anti-CtBP antibody on chromatin isolated from 2DG-treated rats as above. Hippocampi from rats administered 2-DG or saline for 2 weeks were subjected to ChIP with a cocktail of anti-CtBP1 and anti-CtBP2 antibody or sham antibody and primers flanking the BDNF NRSE or actin promoter. […] CtBP was not detected at the actin promoter without regard to the glycolytic state of the animal, as expected for a gene not under NRSF regulatory control.

[4] = tested on: hippocampal gene expression; assay: microarray hybridization of rat hippocampus mRNA (Affymetrix Rat Array); assay type: in vivo; conditions: of 35,000 genes comprising the microarray
Description: In view of the results with BDNF and TrkB, hippocampal gene expression changes in rats treated with and without 2-DG were assessed by hybridization using microarrays (Affymetrix Rat Array (35,000 genes represented), Affymetrix, Santa Clara, Calif.). Hybridizations were performed according to the manufacturer's instructions using mRNA isolated from rat hippocampus from rats following dietary restriction or treatment with drug (2-DG). […] Genes of interest in disease states detected in these experiments include but are not limited to snail (NM_005985), MDR3/MRP3 (GenBank Accession No. M23234), MTA1 (NM_004689), DCC (NM_005215), Netrin (U75586), and β-catenin (X87838)(metastasis); BDNF (NM_170731) and TrkB (NM_006180) (neurological disorders) and atrial natriuretic peptide (ANP; NM_000907)(cardiac hypertrophy/myocardial infarction).

[5] = tested on: TrkB; assay: QRT-PCR of hippocampal tissue from kindled rats, TrkB; assay type: in vivo, rat
From the text: Values plotted are BDNF or TrkB expression over Actin using rat hippocampal cDNA from an untreated rat for a standard curve. Specifically, mRNA was extracted from hippocampus tissue from rats treated with 2-DG or untreated control rats subjected to kindling stimulation to mimic epilepsy. […] The levels of actin mRNA were not affected by 2-DG treatment. Importantly, the differences in expression of BDNF or TrkB in the absence or presence of 2DG were present after 5 ADs in association with a large difference in AD threshold between 2DG-treated and control rats (FIG. 3 lanes 5 versus 6 and 7 versus 8).

[6] = tested on: NRSF target genes Sodium Type II (NaV1.2), BDNF, CHRM4; assay: QRT-PCR of chromosomal NRSF target genes in JTC-19 cells; assay type: cell-based, rat; conditions: 1 mM 2-DG for 24 hrs
From the text: as §1, §2

[7] = tested on: CHRM4; assay: ChIP in JTC-19 cells grown with 2-DG or glucose, CHRM4; assay type: cell-based, rat
From the text: as §3

O=CC[C@@H](O)[C@H](O)[C@H](O)CO [2-DG, 2-deoxy-D-glucose]
actin levels [1]: unaffected
repression by NRSF of luciferase reporter ([2]; 2-DG added to pyruvate and glucose): augmented this effect
repression of luciferase reporter gene expression by NRSF (fold repression gal4 DBD/gal4-NRSF) ([2]; 16 hrs): increased repression
repression by NRSF of luciferase reporter ([2]; in the absence of glucose): unable to further augment repression
repression by NRSF of luciferase reporter ([2]; in the presence of glucose): increased repression
H3K9 methylation status at the BDNF NRSE ([3]; anti-H3K9-dimethyl antibody, rat hippocampi): robust increase
NRSF binding to the BDNF NRSE ([3]; anti-NRSF antibody, rat hippocampi): not affected
associated histone acetylation levels for BDNF DNA ([3]; drug treatment, rat hippocampus): lowered
CtBP occupancy at the BDNF NRSE ([3]; rats administered 2-DG or saline for 2 weeks, anti-CtBP1 and anti-CtBP2 cocktail): significantly increased
H3K9 acetylation at the NRSE element compared to controls ([3]; rats administered 2-DG or saline for 2 weeks, only amplicon over 20 Kb to change): marked reduction
number of genes down-regulated by drug treatment [4]: 349
number of genes transcriptionally upregulated by drug treatment [4]: 241
hippocampal TrkB expression compared to control animals ([5]; QRT-PCR, expression over actin, FIG. 3 lanes 3 versus 4): significantly reduced
difference in expression of TrkB in absence or presence of 2DG ([5]; after 5 ADs): present
TrkB expression, 2DG-treated versus control rats ([5]; rats that experienced 3 Class V seizures): no difference in expression
expression of chromosomal NRSF target genes [6]: repressed
H3-Lys9 acetylation levels at the CHRM4 promoter ([7]; in the presence of 2-DG): reduced
amount of mono- and di-methyl K9 ([7]; in the presence of 2-DG): increased
amount of unmodified (de-acetylated) H3K9 ([7]; in the presence of 2-DG): increased
increase of amount of CtBP recruited to CHRM4 ([7]; in the presence of 2-DG): 5 fold
amount of NRSF, G9a and SIN3 at NRSF target genes ([7]; presence or absence of 2-DG): does not change
